PubChem BioAssay AID464 (The Scripps Research Institute Molecular Screening Center, 2006)
Activity calls are given as the source filed them.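 The calls were made as follows: active = Compounds that kill half the cells at a concentration of 5 micromolar or below, from the fitted or estimated CC50; inactive = CC50 above 5 micromolar.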

Tested on: Jurkat E6.1 viability, ATP luminescence, 48 h
Test: Jurkat E6.1 cell cytotoxicity, CC50 determination, dose response, cytotoxicity control, ATP luminescence, 48 h, 60K MLSMR (AID 464)

SMILES	CC50
CSCc1nnc(NC(=O)c2ccc(S(=O)(=O)N(CC(C)C)CC(C)C)cc2)o1	21.1 µM (inactive)
CCc1c(C)nc2ncnn2c1NCCc1ccc(OC)cc1	0.901 µM
Cc1cc(C)n(-c2nnc3n2N=C(c2c[nH]c4ccccc24)CS3)n1	> 4.4 µM (inactive)
CCc1ccc2oc(-c3cc(N)cc(C)c3O)nc2c1	> 13 µM (inactive)
Cc1ccc2c(c1)nnn2C1CCN(S(=O)(=O)c2ccc(C(=O)N3C(C)CCCC3C)cc2)CC1 (stereo unspecified)	9.39 µM (inactive)
CN(C)S(=O)(=O)c1ccc(N2CCN(S(=O)(=O)c3ccc(F)cc3)CC2)c(Cl)c1	16.1 µM (inactive)
CCOC(=O)c1[nH]c(C)c(C(=O)Nc2ccc(C)cc2C)c1C	1.64 µM
COCCCN(C(C)=O)c1nc(-c2ccc(OC)cc2)cs1	> 4.4 µM (inactive)
C=CCNc1nc2c(c(=O)n(C)c(=O)n2C)n1CCCCCC	2.76 µM
CN(Cc1ccccc1)S(=O)(=O)c1ccc(C(=O)Nc2nnc(C3CC3)o2)cc1	26 µM (inactive)
Cc1c(C(=O)OCCOC(C)C)[nH]c2c1C(=O)CC(c1ccco1)C2 (stereo unspecified)	0.156 µM
COc1ccc(-c2nnc(NC(=O)c3ccccc3C)o2)cc1	> 40 µM (inactive)
Cc1cc(C)n(-c2ccc(C(=O)Nc3ccc(S(=O)(=O)NCc4ccco4)cc3)cc2)n1	5.24 µM (inactive)
COc1cccc(Cn2c(-c3nonc3N)nc3ccccc32)c1	1.06 µM
CCOc1ccc2nc(NC(=O)c3ccoc3C)sc2c1	12.6 µM (inactive)
CCN(CC)c1ccc(NC(=O)c2ccccc2F)cc1	> 4.4 µM (inactive)
CC1=C(C(=O)OCc2ccc3c(c2)OCO3)C(c2ccc(F)cc2)NC(=O)N1 (stereo unspecified)	3.57 µM
CN(C)c1nc(N)nc(CSc2nnnn2-c2cccc3ccccc23)n1	6.97 µM (inactive)
O=C(CSc1nc(-c2ccco2)cc(C(F)(F)F)n1)Nc1ccc2c(c1)OCO2	5.19 µM (inactive)
CCOC(=O)C(C)Oc1cccc2c(=O)n(CC(=O)NCc3ccc4c(c3)OCO4)ccc12 (stereo unspecified)	3.9 µM
Cc1ccccc1OCC(=O)Nc1ccc(N2CCN(C(=O)C(C)C)CC2)c(Cl)c1	> 40 µM (inactive)
Cc1nn(-c2nc3ccccc3s2)c(C)c1Oc1ccccc1O	> 40 µM (inactive)

SMILES	CC50
CSCCOC(=O)c1[nH]c2c(c1C)C(=O)CC(c1ccco1)C2 (stereo unspecified)	1.67 µM
CC(C)OCCCNc1ncnc2c1[nH]c1ccc(F)cc12	2.02 µM
CC(C)Cn1c(N)c(C(=O)CSc2ccc3c(c2)OCCO3)c(=O)n(C)c1=O	> 40 µM (inactive)
Cc1nc2ccccc2n1CC(=O)NCc1ccccc1	5.34 µM (inactive)
O=C(NCc1cccnc1)c1c[nH]c2cc3c(cc2c1=O)OCCO3	1.09 µM
CCOc1ccc(Nc2cc(C)nc(-n3nc(C)cc3C)n2)cc1	0.191 µM
Cc1ccc2[nH]c3c(NCc4ccco4)ncnc3c2c1	18.7 µM (inactive)
CCC(=O)Nc1nc2ccccc2n1Cc1ccc(C)cc1	> 40 µM (inactive)
CNC(=O)N(C1=NCC(C)(C)S1)c1ccc(F)c(Cl)c1	10.4 µM (inactive)
CCc1nnc(NC(=O)CSc2nc3cccnc3n2C2CCCCC2)s1	> 40 µM (inactive)
Cn1ncc2c(Nc3ccc(-c4ccccc4)cc3)ncnc21	> 40 µM (inactive)
COc1ccc(NS(=O)(=O)c2cc(OC)ccc2NC(=O)c2cc(C)oc2C)cc1	2.25 µM
O=C(Nc1ccccc1C(F)(F)F)c1cc(-c2ccccc2O)on1	> 40 µM (inactive)
COc1ccc(N=Cc2c(O)[nH]c3ccccc23)cc1OC	11.3 µM (inactive)
COC(=O)c1[nH]c2c(c1C)C(=O)CC(c1ccccc1)C2 (stereo unspecified)	0.391 µM
COCc1cc(CN2CCCC2)c(O)c2ncccc12	> 13 µM (inactive)
CCc1nnc(NC(=O)c2ccc(S(=O)(=O)N(CC)Cc3ccccc3)cc2)o1	26 µM (inactive)
COc1cc(C)c(C(C)C)cc1S(=O)(=O)n1cnc(C)c1	7.61 µM (inactive)
CCc1ccc(CCC(=O)Nc2sc3c(c2C#N)CCCC3)o1	3.05 µM
Cc1conc1NC(c1cccs1)c1ccc2cccnc2c1O (stereo unspecified)	> 13 µM (inactive)
COc1ccc(-c2nnc(NC(=O)c3ccc(S(=O)(=O)N4COCC4(C)C)cc3)o2)cc1	22.7 µM (inactive)
c1csc(CCNc2ncnc3sc4c(c23)CCC4)c1	13.2 µM (inactive)

SMILES	CC50
CCOc1ccccc1N1CC(O)=C(c2nc3ccccc3s2)C1=N	1.84 µM
COc1cc(CN2CCN(c3cccc(Cl)c3)CC2)cc(OC)c1OC	4.36 µM
O=C(Nc1ccc(N2CCOCC2)cc1)Nc1ccc2nc(-c3ccco3)c(-c3ccco3)nc2c1	10.4 µM (inactive)
COc1cc(-c2nnc3n2N=C(c2ccccc2)CS3)cc(OC)c1OC	0.392 µM
COc1cc(C2C(C#N)=C(C)NC3=C2C(=O)c2ccccc23)cc(OC)c1OC (stereo unspecified)	3.48 µM
COc1ccccc1N1CCN(C(=O)c2c(-c3ccccc3)noc2C)CC1	2.92 µM
Cc1cccc(N2CCN(C(=O)c3ccc(Cl)c(S(=O)(=O)NCc4ccco4)c3)CC2)c1C	9.8 µM (inactive)
COc1ccccc1NC(=O)N(Cc1ccco1)Cc1cc2ccc(C)c(C)c2[nH]c1=O	1.81 µM
Cc1noc(C)c1COc1cccc(C(=O)OCC(=O)N2CC(=O)Nc3ccccc32)c1	6.33 µM (inactive)
COc1ccc(CC(=O)Nc2nc(C)cs2)cc1OC	23.4 µM (inactive)
O=C(Nc1ccc(SC(F)F)cc1)c1ccc2nccnc2c1	13.1 µM (inactive)
C=CCN1C(=Nc2cccnc2)SCC1(O)c1ccc(C)cc1 (stereo unspecified)	17.9 µM (inactive)
CCCCOc1ccc(C(=O)Nc2ccncc2)cc1	1.79 µM
CCOc1cc(C#N)c(NC(=O)c2ccco2)cc1OCC	4.31 µM
Cc1ccc(C2c3c(-c4ccccc4O)n[nH]c3C(=O)N2Cc2ccncc2)cc1 (stereo unspecified)	6.79 µM (inactive)
COC(=O)c1ccc(Cl)c(NS(=O)(=O)c2ccc3c(c2)OCCO3)c1	4.81 µM
COc1ccccc1-n1cnc2cc(NCc3ccco3)ccc21	0.313 µM
O=C(c1cc(-c2ccc(O)cc2)on1)N1CCc2ccccc2C1	> 40 µM (inactive)
Cc1nc2ccc(S(=O)(=O)Nc3ccccc3C)cc2s1	8.95 µM (inactive)
CCc1nnc(NC(=O)CSc2nnc(-c3ccccc3O)n2-c2ccc(C)cc2C)s1	4.43 µM
COc1cc(NS(=O)(=O)c2ccc(C)cc2C)cc(OC)c1OC	9.46 µM (inactive)
CCN(CC)c1ccc(NC(=O)c2cc(OC)cc(OC)c2)c(C)c1	1.11 µM

SMILES	CC50
O=C(Nc1nc(-c2ccc(S(=O)(=O)N3CCCCCC3)cc2)cs1)c1cccs1	> 40 µM (inactive)
O=C(Nc1ccc(Cl)cn1)c1cccc(F)c1	> 4.4 µM (inactive)
Cc1ccc(Oc2ccc(S(=O)(=O)N3CCOCC3)cc2C(N)=O)c(-n2nc3ccccc3n2)c1	2.31 µM
CC(Oc1ccc(Cl)cc1Cl)C(=O)Nc1ccncc1 (stereo unspecified)	7.07 µM (inactive)
CCOc1cc(C(=O)Nc2cnccn2)cc(OCC)c1OCC	6.16 µM (inactive)
O=C(Nc1nccs1)c1ccc(S(=O)(=O)NCC2CCCCC2)cc1	> 40 µM (inactive)
COc1cc(Cn2c(-c3nonc3N)nc3ccccc32)ccc1C	1.55 µM
CCCCCCc1ccc(-c2ncc(N)cn2)cc1	28.5 µM (inactive)
CCOC(=O)c1[nH]c(C)c(C(=O)Nc2cccc(Cl)c2C)c1C	3.8 µM
Cc1ccsc1C=Nc1ccc(O)cc1	39.3 µM (inactive)
CCN(CC)c1nc(C#N)cc(-c2ccc(OC)cc2)n1	5.36 µM (inactive)
O=C(N1CCN(c2ccccn2)CC1)N1c2ccccc2Sc2ccccc21	0.669 µM
Cc1ccc(S(=O)(=O)Nc2ccc3ncccc3c2)cc1	10.7 µM (inactive)
COc1cccc(OC)c1C1=NCC(=O)Nc2c1oc1ccc(Br)cc21	0.693 µM
Cc1cc(C(=O)OCC(=O)NCc2ccco2)c(C)n1-c1ccc(F)cc1	2.34 µM
O=C(Nc1ccn(-c2ccccc2)n1)c1ccc(S(=O)(=O)N2CCCCCC2)cc1	19.8 µM (inactive)
CCOC(=O)c1c(C)c(C(=O)Nc2ccc3c(c2)OCCO3)c(C)n1CC	7.96 µM (inactive)
CCCCNc1ncnc2c1cnn2-c1ccccc1	2.39 µM
COc1cccc(-c2cc(C(=O)Nc3cc(OC)c(OC)c(OC)c3)no2)c1	8.79 µM (inactive)
COc1cc(C2=NOC(C(=O)NCc3ccc(F)cc3)C2)cc(OC)c1OC (stereo unspecified)	0.347 µM
CCc1ccc(NS(=O)(=O)c2cc(OC)ccc2OC)cc1	16.6 µM (inactive)
CCn1c(NC(=O)c2cccc(Cn3cc(Cl)cn3)c2)nc2ccccc21	> 40 µM (inactive)

SMILES	CC50
CC(C)Oc1cc(O)c2c(=O)c(-c3ccc(O)cc3)coc2c1	11 µM (inactive)
O=c1cc(CSc2nnc(-c3cccs3)n2Cc2ccccc2)nc2sc3ccccc3n12	4.96 µM
COc1cccc2sc(Nc3nnc(-c4ccccc4Cl)o3)nc12	1.13 µM
N#CC1=C2SCC(O)(c3ccccc3)N2C(=O)CC1c1cccs1 (stereo unspecified)	0.361 µM
COc1cc(C2CC(=O)c3c([nH]c(C(=O)OCCOC(C)C)c3C)C2)cc(OC)c1OC (stereo unspecified)	6.55 µM (inactive)
COC(=O)c1ccc(NC(=O)c2ccc(N(C)S(C)(=O)=O)cc2)cc1	11.9 µM (inactive)
CCOc1ccc(N(CC(=O)Nc2ccccc2C)S(=O)(=O)c2c(C)noc2C)cc1	1.35 µM
OCCN1CCN(C(c2cccs2)c2ccc3cccnc3c2O)CC1 (stereo unspecified)	13.5 µM (inactive)
N#CCCn1cc(/C=N/O)c(-c2ccc(-c3ccccc3)cc2)n1	11.6 µM (inactive)
CCOc1ccc(C2=Nn3c(nnc3-c3ccc(OC)cc3)SC2)cc1	0.841 µM
CCOC(=O)c1c(COc2ccccc2)oc2ccc(O)cc12	> 40 µM (inactive)
Brc1ccc(C2=Nn3c(nnc3-c3n[nH]c4c3CCC4)SC2)cc1	0.313 µM
CC(C)(C)n1ncc2c(=O)n(CC(=O)NCc3ccc(F)cc3)cnc21	5.13 µM (inactive)
CCCCCN=Cc1c(C)[nH]n(-c2nc3ccccc3s2)c1=O	6.35 µM (inactive)
Oc1ccc(Cl)cc1CNc1ccc(Br)cn1	> 40 µM (inactive)
CC(=O)c1sc(NC(=O)C2(F)C(F)(F)C(F)(F)C(F)(F)C(F)(F)C2(F)F)nc1C	> 13 µM (inactive)
Cc1cc(NO)nc(-c2ccc(Br)cc2)n1	> 40 µM (inactive)
Oc1c(CN2CCCCC2)cc(COCc2ccccc2)c2cccnc12	3.31 µM
